From patent publication US8415469B2, “Compounds and methods for kinase modulation, and indications therefor” (Plexxikon Inc., priority 2005, dated 2013)

Experiments:
Type in all cases: biochemical
B-Raf V600E = target: T1, B-Raf V600E (Homo sapiens, UniProt P15056, V600E); assay: AlphaScreen kinase assay, B-Raf V600E; conditions: read-out: IC50, activity toward kinase B-Raf V600E
T1 construct: P4254. pFastBacBD-CDC37 BRAF D437-K722-X, V600E; His6 with pFastBac HT leader (TEV site) (N); made in house; host or cells: Sf9 (baculovirus; chaperone CDC37 co-expressed)

Flt1 = target: T2, Flt1 (Homo sapiens, UniProt P17948); assay: AlphaScreen kinase assay, Flt1; conditions: read-out: IC50, activity toward kinase Flt1
T2 construct: P1826.pETN6 BI-PTP FLT1 M799-D1165-X WT; His6 (N); made in house; host or cells: E. coli (PTP1B co-expressed)
T2 sequence (P17948 with tags, fused parts or gaps): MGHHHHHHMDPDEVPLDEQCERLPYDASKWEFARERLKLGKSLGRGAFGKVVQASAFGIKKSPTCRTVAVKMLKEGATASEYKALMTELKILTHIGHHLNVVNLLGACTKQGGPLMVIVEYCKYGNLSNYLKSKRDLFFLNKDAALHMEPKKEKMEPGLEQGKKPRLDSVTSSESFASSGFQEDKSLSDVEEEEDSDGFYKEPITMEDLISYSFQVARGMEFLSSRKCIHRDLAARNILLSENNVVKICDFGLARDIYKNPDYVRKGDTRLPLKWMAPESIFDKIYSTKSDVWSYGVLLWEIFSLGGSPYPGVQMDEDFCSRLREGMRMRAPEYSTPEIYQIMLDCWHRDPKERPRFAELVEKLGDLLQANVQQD

Fms = target: T3, Fms (Homo sapiens, UniProt P07333); assay: AlphaScreen kinase assay, Fms; conditions: read-out: IC50, activity toward kinase Fms
T3 construct: purchased Upstate Biotechnology
Source text: AlphaScreen assay was used to screen additional kinases. The assay is similarly dependent on the phosphorylation of a peptide substrate. In this assay, an antibody that recognizes phosphorylated substrate is bound to an acceptor bead. The peptide substrate is attached to biotin, which binds to a donor head that contains streptavidin. Thus phosphorylated substrate is bound by antibody and streptavidin, bringing the donor and acceptor heads into close proximity when kinase is not inhibited. The donor produces singlet oxygen which results in emission from the acceptor when they are in close proximity. Conversely, when kinase is inhibited, the donor and acceptor beads are not associated and the emission from the acceptor is reduced.
AlphaScreen assays were done using compounds dissolved in DMSO to a concentration of 20 mM. The compounds were diluted accordingly to the desired final concentrations in each sample well, using 1:3 serial dilution for a total of 8 concentration points. Plates were prepared such that each kinase reaction is 20 μl in 1× kinase buffer, 5% DMSO and 10 μM ATP. After incubation of the kinase reaction for 1 hour at room temperature, 5 μl of donor beads in stop buffer (50 mM EDTA in 1× kinase buffer) was added, the sample was mixed and incubated for 20 minutes at room temperature before adding 5 μl of acceptor beads in stop buffer. The samples were incubated for 60 minutes at room temperature and the signal per well was read on AlphaQuest reader.

Jnk1 = target: T4, Jnk1 (Homo sapiens, UniProt P45983); assay: AlphaScreen kinase assay, Jnk1; conditions: read-out: IC50, activity toward kinase Jnk1
T4 construct: purchased Upstate Biotechnology

Kit = target: T5, Kit (Homo sapiens, UniProt P10721); assay: AlphaScreen kinase assay, Kit; conditions: read-out: IC50, activity toward kinase Kit
T5 construct: P1332.N6 BI PTP KIT M552-K948-X COD; His6 (N); made in house; host or cells: E. coli (PTP1B co-expressed)

Pyk2 = target: T6, Pyk2 (Homo sapiens, UniProt Q14289); assay: AlphaScreen kinase assay, Pyk2; conditions: read-out: IC50, activity toward kinase Pyk2
T6 construct: purchased Upstate Biotechnology

B-Raf = target: T7, B-Raf (Homo sapiens, UniProt P15056); assay: AlphaScreen kinase assay, B-Raf; conditions: read-out: IC50, activity toward kinase B-Raf
T7 construct: purchased Upstate Biotechnology

c-Raf-1 = target: T8, c-Raf-1 (Homo sapiens, UniProt P04049); assay: AlphaScreen kinase assay, c-Raf-1; conditions: read-out: IC50, activity toward kinase c-Raf-1
T8 construct: purchased Upstate Biotechnology

Fak = target: T9, Fak (Homo sapiens, UniProt Q05397); assay: AlphaScreen kinase assay, Fak; conditions: read-out: IC50, activity toward kinase Fak
T9 construct: P1358.pFastBacHtb FAK S411-Q686-X; His6 with pFastBacHTb leader (TEV site) (N); made in house; host or cells: Sf9 (baculovirus)

FGFR1 = target: T10, FGFR1 (Homo sapiens, UniProt P11362, C488A/C584S); assay: AlphaScreen kinase assay, FGFR1; conditions: read-out: IC50, activity toward kinase FGFR
T10 construct: P1351.pET N6 BI-PTP FGFR A458-E765-X C488A, C584S; made in house; host or cells: E. coli (PTP1B co-expressed)

Src = target: T11, Src (Homo sapiens, UniProt P12931); assay: AlphaScreen kinase assay, Src; conditions: read-out: IC50, activity toward kinase Src
T11 construct: P1144. pET-N6 BI-PTP SRC V86-L536-X; made in house

Jnk3 = target: T12, Jnk3 (Homo sapiens, UniProt P53779); assay: AlphaScreen kinase assay, Jnk3; conditions: read-out: IC50, activity toward kinase Jnk3
T12 construct: purchased Upstate Biotechnology

Ret = target: T13, Ret (Homo sapiens, UniProt P07949); assay: AlphaScreen kinase assay, Ret; conditions: read-out: IC50, activity toward kinase Ret
T13 construct: P1378.pET-SF BI-PTP RET H661-R1012 HIS; made in house
T13 sequence (P07949 with tags, fused parts or gaps): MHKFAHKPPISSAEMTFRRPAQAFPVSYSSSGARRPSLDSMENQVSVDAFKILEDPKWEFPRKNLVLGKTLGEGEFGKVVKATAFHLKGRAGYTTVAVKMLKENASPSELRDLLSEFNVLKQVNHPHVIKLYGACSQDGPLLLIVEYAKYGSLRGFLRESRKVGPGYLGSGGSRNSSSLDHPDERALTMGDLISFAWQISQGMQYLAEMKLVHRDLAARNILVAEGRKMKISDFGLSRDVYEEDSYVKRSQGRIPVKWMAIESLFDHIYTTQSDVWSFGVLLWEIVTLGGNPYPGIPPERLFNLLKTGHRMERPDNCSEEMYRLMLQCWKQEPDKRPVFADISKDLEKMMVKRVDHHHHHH

Measured: IC50

T11 sequence (P12931 with tags, fused parts or gaps): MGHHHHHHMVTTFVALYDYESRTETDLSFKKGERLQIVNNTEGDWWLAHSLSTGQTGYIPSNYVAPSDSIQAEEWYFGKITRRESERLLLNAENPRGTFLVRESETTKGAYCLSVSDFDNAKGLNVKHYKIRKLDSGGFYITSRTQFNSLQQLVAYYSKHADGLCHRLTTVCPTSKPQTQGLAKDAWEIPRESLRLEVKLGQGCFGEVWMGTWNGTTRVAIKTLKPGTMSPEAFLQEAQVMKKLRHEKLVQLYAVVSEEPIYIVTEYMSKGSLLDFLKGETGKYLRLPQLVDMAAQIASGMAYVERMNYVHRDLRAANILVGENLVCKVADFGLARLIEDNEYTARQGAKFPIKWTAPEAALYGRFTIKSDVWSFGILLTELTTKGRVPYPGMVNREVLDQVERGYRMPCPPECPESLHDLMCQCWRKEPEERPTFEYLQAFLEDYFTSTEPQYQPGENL
T6 sequence (Q14289 whole entry): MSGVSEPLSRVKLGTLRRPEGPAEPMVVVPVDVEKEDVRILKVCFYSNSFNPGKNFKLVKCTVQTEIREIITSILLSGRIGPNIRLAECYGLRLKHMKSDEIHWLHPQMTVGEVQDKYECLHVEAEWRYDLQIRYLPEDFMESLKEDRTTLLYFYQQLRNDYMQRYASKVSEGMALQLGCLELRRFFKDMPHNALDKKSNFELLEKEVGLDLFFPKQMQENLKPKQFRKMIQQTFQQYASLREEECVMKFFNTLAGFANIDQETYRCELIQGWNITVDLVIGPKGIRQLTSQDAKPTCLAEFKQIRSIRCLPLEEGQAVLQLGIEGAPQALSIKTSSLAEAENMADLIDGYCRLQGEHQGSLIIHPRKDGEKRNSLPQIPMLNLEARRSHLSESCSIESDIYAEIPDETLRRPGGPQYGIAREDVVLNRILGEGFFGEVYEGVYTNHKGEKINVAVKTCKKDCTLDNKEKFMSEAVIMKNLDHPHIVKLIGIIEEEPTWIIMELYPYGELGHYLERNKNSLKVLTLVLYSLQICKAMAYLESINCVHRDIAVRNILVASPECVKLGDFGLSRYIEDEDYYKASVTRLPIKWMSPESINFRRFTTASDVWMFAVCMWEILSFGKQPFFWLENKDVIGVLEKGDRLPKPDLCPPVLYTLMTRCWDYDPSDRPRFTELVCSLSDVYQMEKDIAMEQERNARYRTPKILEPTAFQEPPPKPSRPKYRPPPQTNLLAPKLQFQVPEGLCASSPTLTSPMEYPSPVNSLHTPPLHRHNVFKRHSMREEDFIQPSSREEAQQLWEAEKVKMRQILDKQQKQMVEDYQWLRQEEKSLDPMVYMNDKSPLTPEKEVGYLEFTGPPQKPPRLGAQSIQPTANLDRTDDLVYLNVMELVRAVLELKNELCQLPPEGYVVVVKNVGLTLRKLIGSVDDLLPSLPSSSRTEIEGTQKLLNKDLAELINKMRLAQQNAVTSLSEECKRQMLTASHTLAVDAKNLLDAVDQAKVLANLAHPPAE
T5 sequence (P10721 with tags, fused parts or gaps): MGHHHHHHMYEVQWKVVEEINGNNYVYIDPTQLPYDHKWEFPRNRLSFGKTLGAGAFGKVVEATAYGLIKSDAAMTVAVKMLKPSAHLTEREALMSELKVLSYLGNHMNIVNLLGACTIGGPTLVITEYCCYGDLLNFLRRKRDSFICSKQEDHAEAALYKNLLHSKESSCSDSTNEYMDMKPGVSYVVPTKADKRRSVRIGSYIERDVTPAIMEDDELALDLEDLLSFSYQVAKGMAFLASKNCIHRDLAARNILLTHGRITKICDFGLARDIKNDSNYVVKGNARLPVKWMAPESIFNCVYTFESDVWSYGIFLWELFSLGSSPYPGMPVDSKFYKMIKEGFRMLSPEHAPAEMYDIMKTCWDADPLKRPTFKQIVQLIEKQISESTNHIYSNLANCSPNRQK
T7 sequence (P15056 whole entry): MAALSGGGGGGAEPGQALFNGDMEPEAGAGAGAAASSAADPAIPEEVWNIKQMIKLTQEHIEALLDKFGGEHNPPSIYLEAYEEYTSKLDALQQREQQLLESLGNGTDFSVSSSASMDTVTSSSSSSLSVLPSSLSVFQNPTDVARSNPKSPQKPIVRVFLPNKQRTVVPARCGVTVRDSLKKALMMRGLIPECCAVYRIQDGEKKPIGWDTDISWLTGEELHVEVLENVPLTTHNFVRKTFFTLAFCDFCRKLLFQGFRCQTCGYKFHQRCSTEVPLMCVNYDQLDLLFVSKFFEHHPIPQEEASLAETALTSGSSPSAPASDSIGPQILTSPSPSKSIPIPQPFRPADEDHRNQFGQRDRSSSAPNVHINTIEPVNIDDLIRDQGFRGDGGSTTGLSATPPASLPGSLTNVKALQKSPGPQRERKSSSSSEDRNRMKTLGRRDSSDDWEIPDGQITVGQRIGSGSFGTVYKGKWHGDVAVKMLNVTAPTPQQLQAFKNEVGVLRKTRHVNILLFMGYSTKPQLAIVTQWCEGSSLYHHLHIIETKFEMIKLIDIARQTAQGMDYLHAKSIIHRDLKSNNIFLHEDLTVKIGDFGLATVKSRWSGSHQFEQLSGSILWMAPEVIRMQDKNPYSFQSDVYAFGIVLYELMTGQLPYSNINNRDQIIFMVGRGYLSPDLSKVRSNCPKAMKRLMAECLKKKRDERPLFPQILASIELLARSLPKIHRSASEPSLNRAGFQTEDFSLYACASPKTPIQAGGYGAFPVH
T1 sequence (P15056 with tags, fused parts or gaps V600E): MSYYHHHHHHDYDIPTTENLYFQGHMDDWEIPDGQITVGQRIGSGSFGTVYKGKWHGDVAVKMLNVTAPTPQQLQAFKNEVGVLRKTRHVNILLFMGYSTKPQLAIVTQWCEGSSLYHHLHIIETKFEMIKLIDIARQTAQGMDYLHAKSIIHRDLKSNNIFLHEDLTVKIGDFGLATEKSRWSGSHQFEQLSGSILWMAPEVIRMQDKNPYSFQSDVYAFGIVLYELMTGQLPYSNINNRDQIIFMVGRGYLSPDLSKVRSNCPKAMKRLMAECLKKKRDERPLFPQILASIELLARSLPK
T3 sequence (P07333 20-972): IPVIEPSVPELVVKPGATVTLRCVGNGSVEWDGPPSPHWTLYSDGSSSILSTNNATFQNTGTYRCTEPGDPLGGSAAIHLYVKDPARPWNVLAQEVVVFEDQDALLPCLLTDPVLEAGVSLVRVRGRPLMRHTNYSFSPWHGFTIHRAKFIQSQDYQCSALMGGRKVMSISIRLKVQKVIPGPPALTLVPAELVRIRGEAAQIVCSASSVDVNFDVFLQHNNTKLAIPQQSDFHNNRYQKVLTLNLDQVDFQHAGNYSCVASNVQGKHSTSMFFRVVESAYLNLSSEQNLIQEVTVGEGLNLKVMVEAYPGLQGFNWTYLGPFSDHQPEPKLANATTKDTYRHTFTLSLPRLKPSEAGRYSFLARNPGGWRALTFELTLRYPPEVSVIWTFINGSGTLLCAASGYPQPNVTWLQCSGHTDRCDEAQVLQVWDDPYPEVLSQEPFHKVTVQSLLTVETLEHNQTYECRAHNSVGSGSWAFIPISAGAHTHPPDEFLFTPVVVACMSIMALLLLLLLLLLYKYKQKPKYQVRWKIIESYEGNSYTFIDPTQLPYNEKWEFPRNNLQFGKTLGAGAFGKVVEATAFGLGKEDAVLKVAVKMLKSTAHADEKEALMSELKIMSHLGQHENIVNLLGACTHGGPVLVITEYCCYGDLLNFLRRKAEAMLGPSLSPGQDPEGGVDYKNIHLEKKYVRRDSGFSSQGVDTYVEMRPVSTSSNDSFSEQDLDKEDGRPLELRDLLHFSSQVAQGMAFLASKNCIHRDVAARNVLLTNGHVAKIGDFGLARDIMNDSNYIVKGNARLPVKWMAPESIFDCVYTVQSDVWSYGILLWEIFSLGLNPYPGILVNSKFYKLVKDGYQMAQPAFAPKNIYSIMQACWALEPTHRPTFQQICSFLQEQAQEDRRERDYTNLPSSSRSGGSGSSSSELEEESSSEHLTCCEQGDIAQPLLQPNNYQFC
T8 sequence (P04049 whole entry): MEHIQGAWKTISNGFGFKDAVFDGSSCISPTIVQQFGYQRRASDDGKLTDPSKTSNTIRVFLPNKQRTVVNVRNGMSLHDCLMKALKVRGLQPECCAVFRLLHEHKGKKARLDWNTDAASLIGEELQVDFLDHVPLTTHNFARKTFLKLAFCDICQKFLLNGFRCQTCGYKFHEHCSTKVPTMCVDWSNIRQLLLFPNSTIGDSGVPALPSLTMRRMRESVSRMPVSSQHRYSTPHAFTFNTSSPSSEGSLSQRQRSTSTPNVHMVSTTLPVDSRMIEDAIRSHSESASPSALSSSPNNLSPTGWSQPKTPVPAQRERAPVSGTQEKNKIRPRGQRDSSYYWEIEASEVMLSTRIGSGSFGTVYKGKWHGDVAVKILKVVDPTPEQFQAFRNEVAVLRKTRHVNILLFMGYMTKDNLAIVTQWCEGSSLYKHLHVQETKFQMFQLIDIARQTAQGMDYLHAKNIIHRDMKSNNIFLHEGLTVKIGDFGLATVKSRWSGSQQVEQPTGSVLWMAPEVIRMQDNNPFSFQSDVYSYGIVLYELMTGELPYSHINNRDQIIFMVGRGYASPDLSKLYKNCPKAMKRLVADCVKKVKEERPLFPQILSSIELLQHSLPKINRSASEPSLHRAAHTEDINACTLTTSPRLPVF
T4 sequence (P45983 whole entry): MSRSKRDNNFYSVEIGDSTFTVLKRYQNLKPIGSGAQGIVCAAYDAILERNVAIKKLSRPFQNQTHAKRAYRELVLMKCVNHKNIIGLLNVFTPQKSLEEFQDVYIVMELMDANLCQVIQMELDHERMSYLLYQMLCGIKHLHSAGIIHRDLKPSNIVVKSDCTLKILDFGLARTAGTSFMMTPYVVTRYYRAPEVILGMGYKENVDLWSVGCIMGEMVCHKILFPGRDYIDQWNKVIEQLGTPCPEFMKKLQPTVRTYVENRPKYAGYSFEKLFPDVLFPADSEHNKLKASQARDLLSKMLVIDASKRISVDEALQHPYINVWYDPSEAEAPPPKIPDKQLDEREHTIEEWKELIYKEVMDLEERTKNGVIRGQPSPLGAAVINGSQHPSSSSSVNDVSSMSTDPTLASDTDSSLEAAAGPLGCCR

CCCC(=O)Nc1ccc(F)c(C(=O)c2c[nH]c3ncc(OC)cc23)c1F [Compound P-1370]
≤ 10 µM: B-Raf V600E | Flt1 | Fms | Jnk1 | Kit | Pyk2

CN(C)S(=O)(=O)Nc1ccc(F)c(C(=O)c2c[nH]c3ncc(-c4cccnc4)cc23)c1F [Compound P-0837, Dimethylamine-1-sulfonic acid [3-(5-pyridin-3-yl-1H-pyrrolo[2,3-b]pyridine-3-carbonyl)-2,4-difluoro-phenyl]-amide]
not listed: Flt1 | Jnk1 | Jnk3 | Ret
≤ 10 µM: all other assays above

COc1cccc(Cc2c[nH]c3ncc(-c4ccc(C(N)=O)cc4)cc23)c1 [Compound P-0697]
≤ 10 µM: B-Raf | FGFR1 | Jnk3 | Kit | Pyk2 | Ret

CCCS(=O)(=O)Nc1ccc(F)c(Cc2c[nH]c3ncc(-c4ccccc4)cc23)c1F [Compound P-0911, Propane-1-sulfonic acid [2,4-difluoro-3-(5-phenyl-1H-pyrrolo[2,3-b]pyridin-3-ylmethyl)-phenyl]-amide]
not listed: Flt1 | Jnk1 | Src | Jnk3 | Ret
≤ 10 µM: all other assays above

CCCS(=O)(=O)Nc1ccc(F)c(C(=O)c2c[nH]c3ncc(-c4cccc(OC)c4)cc23)c1F [Compound P-0874, Propane-1-sulfonic acid {2,4-difluoro-3-[5-(3-methoxy-phenyl)-1H-pyrrolo[2,3-b]pyridine-3-carbonyl]-phenyl}-amide]
not listed: Flt1 | Jnk1 | Fak | Jnk3 | Ret
≤ 10 µM: all other assays above

CCCS(=O)(=O)Nc1ccc(F)c(C(=O)c2c[nH]c3ncc(Nc4ccccc4)cc23)c1F [Compound P-0848, propane-1-sulfonic acid [2,4-difluoro-3-(5-phenylamino-1H-pyrrolo[2,3-b]pyridine-3-carbonyl)-phenyl]-amide]
not listed: Flt1 | Fak | Jnk3 | Ret
≤ 10 µM: all other assays above

CCCC(=O)Nc1ccc(F)c(Cc2c[nH]c3ncc(Br)cc23)c1F [Compound P-1282]
≤ 10 µM: B-Raf | B-Raf V600E | Fak | FGFR1 | Fms | Pyk2

CCCC(=O)Nc1ccc(F)c(Cc2c[nH]c3ncc(-c4cccc(C(N)=O)c4)cc23)c1F [Compound P-1281]
not listed: Flt1 | c-Raf-1 | Jnk3 | Ret
≤ 10 µM: all other assays above

CC(C)S(=O)(=O)Nc1ccc(F)c(Cc2c[nH]c3ncc(Br)cc23)c1F [Compound P-0867, Propane-2-sulfonic acid [3-(5-bromo-1H-pyrrolo[2,3-b]pyridin-3-ylmethyl)-2,4-difluoro-phenyl]-amide]
not listed: Flt1 | Jnk1 | Src | Jnk3 | Ret
≤ 10 µM: all other assays above

CN(C)S(=O)(=O)Nc1ccc(F)c(C(=O)c2c[nH]c3ncc(Br)cc23)c1F [Compound P-0898, Dimethylamine-1-sulfonic acid [3-(5-bromo-1H-pyrrolo[2,3-b]pyridine-3-carbonyl)-2,4-difluoro-phenyl]-amide]
not listed: Flt1 | Jnk1 | Fak | Jnk3 | Ret
≤ 10 µM: all other assays above

CCCC(=O)Nc1ccc(F)c(C(=O)c2c[nH]c3ncc(-c4cccc(C(N)=O)c4)cc23)c1F [Compound P-1365]
not listed: Src | Jnk3 | Ret
≤ 10 µM: all other assays above

CCCS(=O)(=O)Nc1ccc(F)c(Cc2c[nH]c3ncc(Nc4ccccc4)cc23)c1F [Compound P-0818, Propane-1-sulfonic acid [2,4-difluoro-3-(5-phenylamino-1H-pyrrolo[2,3-b]pyridin-3-ylmethyl)-phenyl]-amide]
not listed: Flt1 | Jnk1 | Jnk3 | Ret
≤ 10 µM: all other assays above

CCCS(=O)(=O)Nc1ccc(F)c(Cc2c[nH]c3ncc(OC)cc23)c1F [Compound P-1316]
not listed: Flt1 | Jnk1 | B-Raf | Jnk3 | Ret
≤ 10 µM: all other assays above

O=C(Nc1ccc(F)c(Cc2c[nH]c3ncc(-c4cccnc4)cc23)c1F)OCc1ccccc1 [Compound P-0396, [2,4-Difluoro-3-(5-pyridin-3-yl-1H-pyrrolo[2,3-b]pyridin-3-ylmethyl)-phenyl]-carbamic acid benzyl ester]
not listed: Flt1 | Jnk1 | Jnk3
≤ 10 µM: all other assays above

Clc1ccccc1Nc1ccc2cc[nH]c2n1 [Compound P-1375, (2-Chloro-phenyl)-(1H-pyrrolo[2,3-b]pyridin-6-yl)-amine]
≤ 10 µM: Jnk3 | Pyk2

CCCS(=O)(=O)Nc1ccc(F)c(Cc2c[nH]c3ncc(Br)cc23)c1F [Compound P-0910, Propane-1-sulfonic acid [3-(5-bromo-1H-pyrrolo[2,3-b]pyridin-3-ylmethyl)-2,4-difluoro-phenyl]-amide]
not listed: Flt1 | Fms | Jnk1 | Jnk3 | Ret
≤ 10 µM: all other assays above

CN(C)S(=O)(=O)Nc1ccc(F)c(C(=O)c2c[nH]c3ncc(-c4ccccc4)cc23)c1F [Compound P-0857]
not listed: Flt1 | Jnk1 | Fak | Jnk3 | Ret
≤ 10 µM: all other assays above
